Laboratory results from patent US4469686A, “Substituted phosphinic acids” (priority 1980, dated 1984).

Experiments:
[1] = Test for catalytic dismutation of superoxide; format: biochemical; conditions: test compound: copper glycine ratio of 4:1; read-out: Catalysis of superoxide dismutation, I50
From the text: (A) Test for catalytic dismutation of superoxide:
This test is relevant to degenerative joint disease and inflammation. The method followed is the method of M. YOUNES and U. WESER [Biochem.Biophys.Res.Commun. 1977, 78 (4) 1247-53] using a test compound: copper glycine ratio of 4:1.

[2] = Test for cupriuretic activity; format: in vivo; conditions: at 1 mM/kg
From the text: (B) Test for cupriuretic activity:
This test is relevant to Wilson's disease. The method followed is the method of K. GIBBS and J. M. WALSHE (Clinical Science and Molecular Medicine, 1977, 53, 317-20).

mice = assay: Acute toxicity studies in mice; format: in vivo; conditions: i.p.
Protocol: Acute toxicity studies in mice have shown that the minimum single dose to cause death is >2400 mg/kg i.p. for compound B and ≤400 mg/kg i.p. for DL-penicillamine.

| SMILES | IC50 [1] | Cupriuretic activity, % Increase [2] | minimum single dose to cause death (mice) |
| --- | --- | --- | --- |
| CC(C)(S)C(N)P(=O)(O)O (racemic) [Compound A, DL-(1-Amino-2-mercapto-2-methylpropyl)phosphonic acid] | 1.2 µM | 139% |  |
| CC(C)(S)C(N)[PH](=O)O (racemic) [Compound B, DL-(1-Amino-2-mercapto-2-methylpropyl)phosphinic acid] | 1.2 µM | 397% | > 2400 mg/kg |
| CC1(C)NC(P(=O)(O)O)C(C)(C)S1 (racemic) [Compound C, DL-2,2,5,5-Tetramethyl-4-thiazolidinyl)phosphonic acid] |  | 122% |  |
| CC1(C)NC([PH](=O)O)C(C)(C)S1 (racemic) [Compound D, DL-(2,2,5,5-Tetramethyl-4-thiazolidinyl)phosphinic acid] |  | 308% |  |
| CC(C)(S)C(N)C(=O)O (racemic) [DL-penicillamine, reference compound] |  |  | ≤ 400 mg/kg |
